Read-outs that look alike come from different tables or passages of the source.
What was measured:
[1] = biological target: T1, Human BAK-∆TM-His6 (BAK) (Homo sapiens, UniProt Q16611); assay: Liposome permeabilization assay (ANTS/DPX dye release from LUVs): activation of WT BAK by BH3 peptides;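 as to AUC for Experiment-2 (Mean): traces normalized between buffer minimum and 3% CHAPS maximum fluorescence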;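 as to AUC for Experiment-3 (Mean): traces normalized between buffer minimum and 3% CHAPS maximum fluorescence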; type: biochemical; design: AUC for Experiment-2 (Mean) / AUC for Experiment-3 (Mean) / AUC for Experiment-1 (Mean):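 traces normalized between buffer minimum and 3% CHAPS maximum fluorescence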; conditions: for EC50: 50 nM BAK; for AUC for Experiment-1 (Mean) / AUC for Experiment-2 (Mean) / AUC for Experiment-3 (Mean): AUC 0-88 mins of liposome permeabilization; for AUC for Experiment-1 (Mean): Experiment-1, mean of N replicates; for AUC for Experiment-2 (Mean): Experiment-2, mean of N replicates; for AUC for Experiment-3 (Mean): Experiment-3, mean of N replicates; for peptide concentration at which ligands activate WT BAK / lowest dose at which permeabilization is observed: liposome permeabilization; for peptide concentration at which ligands activate WT BAK: Suppl. Figs. 3e, 4d, e; for lowest dose at which permeabilization is observed: robust across experiments; for activation of WT BAK in liposome permeabilization assays: BAK BH3 peptide ligands, 50 nM WT BAK receptor
T1 construct: C-terminus truncated recombinant human BAK containing C-terminal 6× histidine tag (MEAS-BAK); made in house; host or cells: E. coli T7 Express pLac I/Y
T1 sequence (Q16611 1-186 limits assumed): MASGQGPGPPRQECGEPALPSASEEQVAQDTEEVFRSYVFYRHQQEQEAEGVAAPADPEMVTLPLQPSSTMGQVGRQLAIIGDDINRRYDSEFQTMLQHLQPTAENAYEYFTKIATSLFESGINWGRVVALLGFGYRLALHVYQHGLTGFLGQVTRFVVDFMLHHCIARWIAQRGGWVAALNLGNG

[2] = biological target: T1, Human BAK-∆TM-His6 (BAK); conditions: ref Moldoveanu et al NSMB (2013) 20:589; cited from earlier work
Description: page 33: helix 1 to be important, and the idea that this could be achieved through somewhat different molecular interactions is neither surprising nor novel. We appreciate the reviewer’s viewpoint but respectfully disagree. We clarify the distinction between W(3)W(5) BID BH3 and BIM-h3Pc-RT inactivated complexes by explaining that stabilization of helix 1 is through indirect contacts in the former (allosteric) and through direct contact in the latter “glue-like” complex. This distinction is now discussed in the highlighted region on pg. 16 being key for the design of small molecule BH3 mimetic ...

[3] = biological target: T2, WT tevBAK (Homo sapiens, UniProt Q16611); assay: Isothermal titration calorimetry; type: binding; conditions: 25 °C; single site binding model
T2 construct: To generate tevBAK (residues 22–186), we cleaved off the histidine tag with TEV protease; His tag (vector pNIC28-Bsa4) (N, cleaved yes); made in house; host or cells: E. coli T7 Express pLac I/Y
T2 sequence (Q16611 22-186): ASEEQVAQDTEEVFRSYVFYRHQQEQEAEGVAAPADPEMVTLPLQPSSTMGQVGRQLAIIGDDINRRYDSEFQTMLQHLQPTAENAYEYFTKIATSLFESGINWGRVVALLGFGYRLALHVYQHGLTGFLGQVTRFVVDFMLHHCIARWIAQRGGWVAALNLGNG
Procedure: Protein samples were exchanged into 20 mM HEPES, 100 mM NaCl and 1 mM TCEP prior to the experiment. Titrations were performed by first injecting 0.5 μl of 250 or 500 µM BID BH3 peptides into a solution of 20 or 50 µM BAK followed by additional 2 μl injections. […] Results were analyzed using Origin software (OriginLab) provided by MicroCal. Binding constants (KD) and thermodynamic parameters were calculated from the average of two or three individual titrations by fitting the data to a single site binding model using a nonlinear least-squares fitting algorithm.

[4] = biological target: T3, GST-BAK (Homo sapiens, UniProt Q16611); assay: Competitive fluorescence polarization assay (displacement of BID BH3 SAHB-F); type: binding; conditions: competitive FP
T3 construct: made in house
T3 sequence (Q16611 1-211): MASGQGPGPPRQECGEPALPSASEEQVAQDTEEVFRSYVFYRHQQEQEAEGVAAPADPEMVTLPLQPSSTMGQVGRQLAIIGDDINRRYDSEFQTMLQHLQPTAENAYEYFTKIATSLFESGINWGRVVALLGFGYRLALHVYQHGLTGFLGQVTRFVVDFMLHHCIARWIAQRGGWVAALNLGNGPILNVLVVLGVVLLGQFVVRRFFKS
Description: We also tested the monosubstituted peptides in competitive fluorescence polarization (FP) binding assays, which measure displacement from GST-BAK of BID BH3 stabilized alpha helix of BCL-2 proteins (SAHB) C-terminally tagged with fluorescein and thus informs on peptide binding affinity.
We carried out fluorescence polarization assays, measuring the displacement of the fluorescent peptide BID BH3 SAHB-F from GST-BAK, in 384-well Greiner black polystyrene plates with flat bottom (Sigma-Aldrich). Master mix consisted of 50 mM Tris-HCl pH 7.5, 50 mM KCl, 0.1 mg/mL BSA, 2 mM DTT, 0.005% Tween-20, 10 nM BID BH3 SAHB-F, and 1 µM GST-BAK. We pin transferred peptides using Biomek FX (Beckman Coulter Life Sciences, IN) to achieve final concentration of 500−0.2 µM in 20 µL final volume. We gently centrifuged plates to remove air bubbles for 1 min at 1000 rpm, and incubated them for 60 min at RT. […] Free peptide controls in each plate consisted of only BID BH3 SAHB-F and bound peptide controls containing BID BH3 SAHB-F + GST-BAK. We derived Z’-values using the equation [1 − 3(stdev^L + stdev^H)]/(average^H − average^L), where L is the free peptide control and H is the bound peptide control. […] We processed and visualized data using the software Robust Investigation of Screening Experiments (RISE) developed in house in the Pipeline Pilot platform (Accelrys, v.8.5.0). We performed at least three independent dose-response experiments for each peptide. We estimated IC50 values in RISE and GraphPad Prism v.8.0a.

With `CC[C@H](C)[C@H](NC(=O)[C@H](CO)NC(=O)[C@H](CCCNC(=N)N)NC(=O)[C@H](CC(=O)O)NC(=O)[C@H](CCSC)NC(=O)[C@H](CO)NC(=O)[C@H](CC(=O)O)NC(=O)CNC(=O)[C@@H](NC(=O)[C@H](CCC(N)=O)NC(=O)[C@H](C)NC(=O)[C@H](CC(C)C)NC(=O)[C@H](Cc1c[nH]cn1)NC(=O)[C@H](CCCNC(=N)N)NC(=O)[C@H](C)NC(=O)[C@@H](NC(=O)[C@H](CC(N)=O)NC(=O)[C@H](CCCNC(=N)N)NC(=O)[C@@H](NC(=O)[C@@H](NC(=O)[C@H](CC(=O)O)NC(=O)[C@H](CCC(=O)O)NC(C)=O)[C@@H](C)CC)[C@@H](C)CC)[C@@H](C)CC)C(C)C)C(N)=O` [WT BID BH3, reference compound] the EC50 ([1]; EC50 from AUC vs peptide dose, data in Supplementary Figure 7c, 37 °C, 90 min, read-out: Liposome permeabilization EC50) was 0.059 ± 0.012 µM, the “AUC for Experiment-1 (Mean)” value ([1]; 1 μM peptide + 50 nM BAK) was 17.777 and the “AUC for Experiment-2 (Mean)” value ([1]; 1 μM peptide + 50 nM BAK) was 10.071. The “AUC for Experiment-3 (Mean)” value ([1]; 1 μM peptide + 50 nM BAK) was 10.975, the “AUC for Experiment-1 (Mean)” value ([1]; 50 μM peptide + 50 nM BAK) was 14.842 and the “AUC for Experiment-2 (Mean)” value ([1]; 50 μM peptide + 50 nM BAK) was 13.692. The “AUC for Experiment-3 (Mean)” value ([1]; 50 μM peptide + 50 nM BAK) was 17.854, the “peptide concentration at which ligands activate WT BAK” value [1] was “above 1 µM” and the “lowest dose at which permeabilization is observed” value [1] was 1 µM. The “fold less potent than activated full-length BID (N/C BID)” value [2] was ~ 100 x, the “ITC -T∆S” value [3] was 0.41 ± 0.11 kcal/mol and the “ITC ∆G” value [3] was -6.34 ± 0.04 kcal/mol. For the same compound, the “ITC ∆H” value [3] was -6.75 ± 0.07 kcal/mol, the IC50 ([4]; Experiment-1) was 12.73 µM and the IC50 ([4]; Experiment-2) was 6.926 µM. It also gave an IC50 ([4]; Experiment-3) of 15.45 µM, an IC50 ([4]; Experiment-4) of 8.804 µM and an IC50 ([4]; Experiment-5) of 11 µM. It also gave an IC50 ([4]; Experiment-6) of 9.271 µM, an IC50 ([4]; Experiment-7) of 11.57 µM and an IC50 ([4]; Experiment-9) of 22.17 µM. For the same compound, the IC50 ([4]; mean of the experiments (replicated 4-9 times), read-out: IC50 Mean) was 12.2 µM.

In the case of `CC[C@H](C)[C@H](NC(=O)[C@H](C)NC(=O)[C@H](CC(C)C)NC(=O)[C@H](CCC(N)=O)NC(=O)[C@H](CCCNC(=N)N)NC(=O)CNC(=O)[C@@H](NC(=O)[C@H](CCC(N)=O)NC(=O)CNC(=O)[C@H](CCSC)NC(=O)[C@@H](NC(=O)[C@H](CO)NC(=O)[C@H](CO)NC(C)=O)[C@@H](C)O)C(C)C)C(=O)N[C@H](C(=O)NCC(=O)N[C@@H](CC(=O)O)C(=O)N[C@@H](CC(=O)O)C(=O)N[C@H](C(=O)N[C@@H](CC(N)=O)C(=O)N[C@@H](CCCNC(=N)N)C(=O)N[C@@H](CCCNC(=N)N)C(=O)N[C@@H](Cc1ccc(O)cc1)C(N)=O)[C@@H](C)CC)[C@@H](C)CC` [WT BAK BH3], the EC50 ([1]; EC50 from AUC vs peptide dose, data in Supplementary Figure 4b, 37 °C, 90 min, read-out: Liposome permeabilization EC50) is reported as 0.0358 ± 0.0304 µM, the EC50 ([1]; peer review file, read-out: EC50 analysis of liposome permeabilization (rebuttal, earlier manuscript version)) is reported as 0.05 to 0.2 µM and the “activation of WT BAK in liposome permeabilization assays” value [1] is reported as “activates BAK in liposome permeabilization assays similarly to BID BH3”. The “activation of WT BAK in liposome permeabilization assays” value ([1]; listed as WT BAK BH3 peptide) was “potently activate WT BAK”, the “peptide concentration at which ligands activate WT BAK” value [1] was “above 1 µM” and the “lowest dose at which permeabilization is observed” value [1] was 0.1 µM.

Source: paper PMC8752837, “Structural basis of BAK activation in mitochondrial apoptosis initiation” (Nature Communications, 2022)
